The nature of data set [1]: Prodrug stability in culture medium with alamarBlue, cell free, 72 h. Format: in vitro ADME. The settings on record: standard growth medium, 37°C. The method, then:
To determine drug stability in tissue culture medium for short-term treatments, 4SP65 was added to medium containing alamarBlue reagent in 96-well plates and incubated in the absence of cells at 37°C for 72 h. After this incubation period, wells with medium containing alamarBlue alone or both alamarBlue and 4SP65 were assessed for fluorescence readings using a Tecan Infinite 200 PRO plate reader (San Jose, CA, USA).
In general terms: Resazurin is reduced to fluorescent resorufin, in cell work by metabolically active cells.

The subject of data set [2] is Promyelocytic HL-60 leukemia cells. It is filed as cell-based. As for the experimental part:
(§1) The percentage of growth inhibition was calculated as follows: […]

The test system of data set [3] is Malignant pleural mesothelioma HMESO1 cells. The following applies: for Fold increase in efficacy: drug alone ÷ drug in 4SP65-DDP combination. The method, then: as §1
For the next data set, the system named is Strain-1 NHMECs (M99005). Put plainly: NHMEC growth, trypan blue exclusion, 48-h treatment. It is filed as cell-based, human. The source says: Normal human mammary epithelial cell (NHMEC) strains used to assess potential cytotoxicity of 4SP65 and 1LP65 were established from reduction mammoplasty tissue from a healthy donor (M99005 or ‘Strain-1’) ([53]) or purchased from ATCC (Manassas, VA, USA; batch#70043304 or ‘Strain-2’) or Cell Applications (San Diego, CA, USA; lot#1669 or ‘Strain-3’). Human cancer cell lines including HCC38, MDA-MB-231, A549, National Cancer Institute (NCI)-H460, NCI-H1437, NCI-H1975, DU145, LNCaP, PC3, PANC1, SKOV3, and HL60, which were free of Mycoplasma, were purchased from ATCC. HMESO1, PPMMill, and TOV21G cells, obtained from Dr. Brian Cunniff, were verified to be Mycoplasma negative using the LookOut® Mycoplasma PCR Detection Kit (Sigma-Aldrich) and to match previously annotated DNA fingerprints by the Vermont Integrative Genomics Resource DNA Analysis Facility.
To assess the effects of 4SP65 or 1LP65 on the growth of normal epithelium, experiments were performed using NHMEC strains from differing donors ([53]). Strain-1 NHMECs were plated at 5,000 cells/well in 24-well plates and allowed to reach 50% confluence before treatment with 0-150 µM 4SP65 for 48 h. Cell viability was determined using a hemocytometer and trypan blue exclusion assay. Two other NHMEC strains, exposed to 0-150 µM 4SP65 or 0-500 µM 1LP65 for 48 h, were handled in the same fashion except that viability of cells in 96-well plates was determined using CyQUANT dye. Due to the short life span of these NHMECs, standard curves were not generated and fluorescence readings were used as a surrogate marker of cell number ([54]).

Setting [4] is: 48-h treatment, amifostine ND = not definable up to 500 µM.
Where [5] appears, read: drug alone, 48 h, 4SP65/cisplatin study.

Where “and” joins values, the source holds several entries; their conditions need not be identical. Equal values may be shown once. Read-outs that look alike come from different tables or passages of the source.

As a reminder, the CC50 is the concentration that lowers cell viability or growth by half. A higher CC50 goes with lower toxicity to the cells. What is called GI50 is the concentration at which growth is held to half of that of the control. The low end stands for more potent growth inhibition, the high end for less potent growth inhibition. Usually IC50 stands for the concentration that gives 50% inhibition. Low readings indicate greater potency, high ones weaker potency. As usually defined, the TGI is the concentration at which net growth stops.

For the substance 4-star-PEG-S-S-WR1065 [4SP65], the “change in fluorescence of alamarBlue reagent versus control wells” value in data set [1] is reported as “no significant change”. The same substance gave a CC50 in data set [2] of 7.5 ± 2.1 µM. Moreover, the figures for the GI50 in data set [2] (48-h treatment), in data set [3] (setting [4]) and in data set [3] (setting [5]) were 1.9 ± 0.6 µM, 1.3 ± 0.4 µM and 2 ± 0.3 µM, respectively. The IC50 in data set [2] (48-h treatment) is 4.4 ± 0.9 µM; in data set [3] (setting [4]) it was 2.9 ± 1 µM; in data set [3] (setting [5]), 4.7 ± 0.2 µM; in the data set with Strain-1 NHMECs (M99005) (Strain-1 NHMECs), > 150 µM. For the same substance, the LC99 in data set [2] (48-h treatment) is on record as 10.2 ± 3.4 µM; in data set [3] (setting [4]), 7.9 ± 2.6 µM; in data set [3] (drug alone, 48 h, 4SP65/cisplatin study, ND = not definable, highest concentration in parentheses) it was 12.4 ± 0.1 µM. Further, the TGI in data set [2] (48-h treatment) was 4.7 ± 0.7 µM and 4.7 µM; in data set [3] (setting [4]), 2.9 ± 0.8 µM; in data set [3] (setting [5]), 4.3 ± 0.2 µM. Moreover, the “Fold increase in efficacy” value in data set [3] (at GI50) was 1.5 (NS) fold; in data set [3] (at IC50), 1.1 (NS) fold; in data set [3] (at LC50, GoE = gain of effect), 1.0 (NS) fold; in data set [3] (at LC99, GoE = gain of effect) it was 1.1 (NS) fold; in data set [3] (at TGI), 1.3 (NS) fold. The “growth enhancement compared to sham-exposed control cells” value in the data set with Strain-1 NHMECs (M99005) (Strain-1 cells, 5 µM) was 336%; with Strain-1 NHMECs (M99005) (Strain-1 cells, 15 µM), 286%. For the same substance, in the data set with Strain-1 NHMECs (M99005) (Strain-1 cells, 50 µM), the “growth as % of the control cell growth” value turned out to be 68%. In addition, the growth pattern entry in the data set with Strain-1 NHMECs (M99005) (Strain-1 cells, 150 µM) is reported as “growth enhancement”.
